Laboratory results from ChEMBL document CHEMBL1201862, “PubChem BioAssay data set” (2004).
Calls of active or inactive are those of the source.

Experiments:
Type in all cases: functional
[1] = target: LIM domain kinase 1 (Homo sapiens, UniProt P53667); assay: Navigating the Kinome. Panel member name: LIMK1
[2] = target: G protein-coupled receptor kinase 5 (Homo sapiens, UniProt P34947); assay: Navigating the Kinome. Panel member name: GPRK5
[3] = target: Dual specificity protein kinase CLK4 (Homo sapiens, UniProt Q9HAZ1)
Sequence of Dual specificity protein kinase CLK4 (Q9HAZ1 whole entry): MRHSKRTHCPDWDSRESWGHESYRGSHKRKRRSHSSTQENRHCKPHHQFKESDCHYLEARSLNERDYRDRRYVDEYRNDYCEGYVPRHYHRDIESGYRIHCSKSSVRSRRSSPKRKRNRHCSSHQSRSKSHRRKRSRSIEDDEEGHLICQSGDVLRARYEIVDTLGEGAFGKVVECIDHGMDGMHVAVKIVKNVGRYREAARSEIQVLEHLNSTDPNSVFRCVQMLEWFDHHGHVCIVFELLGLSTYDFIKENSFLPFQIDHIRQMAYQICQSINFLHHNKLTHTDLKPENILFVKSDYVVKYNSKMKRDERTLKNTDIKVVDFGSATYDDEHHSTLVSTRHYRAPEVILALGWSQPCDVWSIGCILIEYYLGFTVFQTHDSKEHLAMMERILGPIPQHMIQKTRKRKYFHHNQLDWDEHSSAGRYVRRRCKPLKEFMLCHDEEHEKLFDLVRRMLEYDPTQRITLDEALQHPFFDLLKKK

[4] = target: T1, Tyrosine-protein kinase receptor TYRO3 (Homo sapiens, UniProt Q06418);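 also: TYRO3 value obtained as one member of a kinome-wide profiling panel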
T1 sequence (Q06418 whole entry): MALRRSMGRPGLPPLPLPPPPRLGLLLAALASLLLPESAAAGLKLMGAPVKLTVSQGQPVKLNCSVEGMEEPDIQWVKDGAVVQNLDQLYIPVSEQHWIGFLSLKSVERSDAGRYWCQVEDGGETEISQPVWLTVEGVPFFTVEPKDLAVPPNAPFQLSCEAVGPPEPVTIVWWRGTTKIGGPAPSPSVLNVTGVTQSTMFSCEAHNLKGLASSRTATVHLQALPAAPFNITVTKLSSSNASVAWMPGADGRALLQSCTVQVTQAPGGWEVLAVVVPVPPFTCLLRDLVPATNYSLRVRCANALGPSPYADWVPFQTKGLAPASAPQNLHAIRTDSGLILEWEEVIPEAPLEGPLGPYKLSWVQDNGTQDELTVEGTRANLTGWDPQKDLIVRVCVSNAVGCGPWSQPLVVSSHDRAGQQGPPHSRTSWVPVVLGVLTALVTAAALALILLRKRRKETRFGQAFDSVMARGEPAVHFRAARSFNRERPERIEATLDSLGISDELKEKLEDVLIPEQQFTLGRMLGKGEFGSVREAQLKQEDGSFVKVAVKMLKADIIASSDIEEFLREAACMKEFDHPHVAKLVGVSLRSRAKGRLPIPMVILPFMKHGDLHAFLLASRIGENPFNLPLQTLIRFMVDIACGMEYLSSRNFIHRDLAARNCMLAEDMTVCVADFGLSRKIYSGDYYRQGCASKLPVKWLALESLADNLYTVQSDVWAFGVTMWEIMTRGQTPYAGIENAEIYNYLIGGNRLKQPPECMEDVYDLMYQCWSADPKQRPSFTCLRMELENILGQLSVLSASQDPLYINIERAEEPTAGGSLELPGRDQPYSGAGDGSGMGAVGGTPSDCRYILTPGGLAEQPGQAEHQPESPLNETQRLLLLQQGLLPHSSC

[5] = target: Leucine-rich repeat serine/threonine-protein kinase 2 (Homo sapiens, UniProt Q5S007);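 also: value from a broad kinome-wide panel profiling study in which LRRK2 was one of the kinases tested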
[6] = target: Dual specificity tyrosine-phosphorylation-regulated kinase 1B (Homo sapiens, UniProt Q9Y463); assay: Navigating the Kinome. Panel member name: DYRK1B
Sequence of Dual specificity tyrosine-phosphorylation-regulated kinase 1B (Q9Y463 whole entry): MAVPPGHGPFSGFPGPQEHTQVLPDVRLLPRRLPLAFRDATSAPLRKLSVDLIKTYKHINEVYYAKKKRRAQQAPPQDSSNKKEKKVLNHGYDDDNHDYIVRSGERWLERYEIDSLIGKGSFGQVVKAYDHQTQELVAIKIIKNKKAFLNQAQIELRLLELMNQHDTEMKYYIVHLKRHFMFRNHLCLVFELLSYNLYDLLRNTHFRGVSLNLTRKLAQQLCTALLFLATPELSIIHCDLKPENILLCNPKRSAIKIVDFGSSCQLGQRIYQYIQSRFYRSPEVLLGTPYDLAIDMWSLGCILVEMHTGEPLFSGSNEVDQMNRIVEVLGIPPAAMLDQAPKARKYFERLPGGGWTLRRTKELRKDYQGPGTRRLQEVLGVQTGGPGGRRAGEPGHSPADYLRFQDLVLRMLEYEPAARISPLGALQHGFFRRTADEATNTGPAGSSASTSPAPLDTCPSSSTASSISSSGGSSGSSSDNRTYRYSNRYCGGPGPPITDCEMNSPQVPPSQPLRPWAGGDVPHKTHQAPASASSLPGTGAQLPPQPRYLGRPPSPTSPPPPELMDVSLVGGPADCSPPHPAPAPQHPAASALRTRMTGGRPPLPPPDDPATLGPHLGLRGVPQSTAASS

[7] = target: Leukocyte tyrosine kinase receptor (Homo sapiens, UniProt P29376); assay: Navigating the Kinome. Panel member name: LTK
Sequence of Leukocyte tyrosine kinase receptor (P29376 whole entry, canonical isoform): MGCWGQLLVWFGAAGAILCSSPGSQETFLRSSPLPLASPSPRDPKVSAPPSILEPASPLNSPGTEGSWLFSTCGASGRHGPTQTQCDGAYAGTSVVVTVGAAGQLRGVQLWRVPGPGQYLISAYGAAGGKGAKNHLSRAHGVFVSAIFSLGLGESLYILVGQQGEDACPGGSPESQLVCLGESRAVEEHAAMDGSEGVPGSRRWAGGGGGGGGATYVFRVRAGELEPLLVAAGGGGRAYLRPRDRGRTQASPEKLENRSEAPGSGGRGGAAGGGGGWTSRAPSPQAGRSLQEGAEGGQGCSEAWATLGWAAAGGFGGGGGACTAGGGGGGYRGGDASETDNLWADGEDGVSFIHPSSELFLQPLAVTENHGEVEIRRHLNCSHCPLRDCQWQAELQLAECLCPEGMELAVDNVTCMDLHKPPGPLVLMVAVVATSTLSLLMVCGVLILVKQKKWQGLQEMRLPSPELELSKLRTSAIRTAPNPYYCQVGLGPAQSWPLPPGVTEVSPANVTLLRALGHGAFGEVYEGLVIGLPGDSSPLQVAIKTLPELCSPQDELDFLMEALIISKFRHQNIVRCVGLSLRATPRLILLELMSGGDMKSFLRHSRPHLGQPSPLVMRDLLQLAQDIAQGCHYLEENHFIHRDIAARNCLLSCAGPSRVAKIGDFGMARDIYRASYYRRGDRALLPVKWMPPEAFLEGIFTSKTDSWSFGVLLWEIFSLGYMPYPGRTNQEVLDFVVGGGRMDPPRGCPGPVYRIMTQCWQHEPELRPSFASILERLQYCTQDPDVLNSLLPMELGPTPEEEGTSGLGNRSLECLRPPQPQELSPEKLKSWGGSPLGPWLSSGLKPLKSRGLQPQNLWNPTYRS

[8] = target: Casein kinase I isoform alpha (Homo sapiens, UniProt P48729)
[9] = target: T2, Serine/threonine-protein kinase Chk1 (Homo sapiens, UniProt O14757);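 also: measured as one member of a kinome-wide kinase profiling panel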
T2 sequence (O14757 whole entry): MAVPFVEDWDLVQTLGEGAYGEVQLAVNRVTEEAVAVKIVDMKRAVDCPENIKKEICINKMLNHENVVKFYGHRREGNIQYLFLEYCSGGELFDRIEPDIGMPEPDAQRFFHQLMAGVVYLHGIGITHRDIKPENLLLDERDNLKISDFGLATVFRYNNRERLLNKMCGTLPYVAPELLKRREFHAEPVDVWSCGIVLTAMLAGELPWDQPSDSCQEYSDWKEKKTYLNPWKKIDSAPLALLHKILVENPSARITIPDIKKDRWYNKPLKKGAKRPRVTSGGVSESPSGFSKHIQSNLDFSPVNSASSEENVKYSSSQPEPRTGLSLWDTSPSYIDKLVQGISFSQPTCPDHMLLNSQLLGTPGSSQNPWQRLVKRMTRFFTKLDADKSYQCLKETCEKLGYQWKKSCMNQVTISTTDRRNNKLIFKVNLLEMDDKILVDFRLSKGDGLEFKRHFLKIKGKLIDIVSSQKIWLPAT

[10] = target: Cyclin-dependent kinase 8 (Homo sapiens, UniProt P49336); assay: Navigating the Kinome. Panel member name: CDK8
[11] = target: Mitogen-activated protein kinase kinase kinase kinase 2 (Homo sapiens, UniProt Q12851);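 also: measured as one member of a kinome-wide kinase panel, with MAP4K2 as the panel entry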
Sequence of Mitogen-activated protein kinase kinase kinase kinase 2 (Q12851 whole entry): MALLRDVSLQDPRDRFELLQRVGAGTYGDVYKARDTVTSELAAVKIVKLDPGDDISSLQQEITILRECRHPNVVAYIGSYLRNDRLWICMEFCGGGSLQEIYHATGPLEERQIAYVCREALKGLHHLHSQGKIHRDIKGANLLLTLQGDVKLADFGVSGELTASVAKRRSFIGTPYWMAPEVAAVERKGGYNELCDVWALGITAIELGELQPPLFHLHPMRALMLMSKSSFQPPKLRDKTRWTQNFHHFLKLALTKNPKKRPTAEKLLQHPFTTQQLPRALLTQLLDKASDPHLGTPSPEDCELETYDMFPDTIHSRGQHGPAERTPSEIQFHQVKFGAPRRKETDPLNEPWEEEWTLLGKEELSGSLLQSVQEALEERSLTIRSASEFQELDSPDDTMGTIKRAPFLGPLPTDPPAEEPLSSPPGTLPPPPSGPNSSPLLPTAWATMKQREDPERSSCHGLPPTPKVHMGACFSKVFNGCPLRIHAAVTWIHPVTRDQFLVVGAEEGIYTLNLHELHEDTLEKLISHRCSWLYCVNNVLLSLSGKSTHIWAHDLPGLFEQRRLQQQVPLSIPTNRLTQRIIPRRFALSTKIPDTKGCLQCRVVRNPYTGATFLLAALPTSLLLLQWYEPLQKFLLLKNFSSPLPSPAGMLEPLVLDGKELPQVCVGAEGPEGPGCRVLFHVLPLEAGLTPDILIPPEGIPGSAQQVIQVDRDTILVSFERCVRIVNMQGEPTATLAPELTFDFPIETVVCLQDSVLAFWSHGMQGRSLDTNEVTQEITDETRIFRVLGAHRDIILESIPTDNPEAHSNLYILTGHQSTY

[12] = target: Serine/threonine-protein kinase pim-1 (Homo sapiens, UniProt P11309)
Sequence of Serine/threonine-protein kinase pim-1 (P11309 whole entry): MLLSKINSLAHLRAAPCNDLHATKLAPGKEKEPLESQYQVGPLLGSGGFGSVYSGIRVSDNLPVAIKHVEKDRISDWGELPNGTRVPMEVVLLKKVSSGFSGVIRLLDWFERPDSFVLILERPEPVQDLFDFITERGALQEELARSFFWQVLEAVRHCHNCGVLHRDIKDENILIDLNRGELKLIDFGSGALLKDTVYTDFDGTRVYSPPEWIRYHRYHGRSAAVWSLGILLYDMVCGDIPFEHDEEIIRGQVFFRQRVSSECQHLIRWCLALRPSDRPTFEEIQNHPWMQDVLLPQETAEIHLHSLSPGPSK

[13] = target: Dual specificity mitogen-activated protein kinase kinase 2 (Homo sapiens, UniProt P36507); assay: Navigating the Kinome. Panel member name: MAP2K2
Sequence of Dual specificity mitogen-activated protein kinase kinase 2 (P36507 whole entry): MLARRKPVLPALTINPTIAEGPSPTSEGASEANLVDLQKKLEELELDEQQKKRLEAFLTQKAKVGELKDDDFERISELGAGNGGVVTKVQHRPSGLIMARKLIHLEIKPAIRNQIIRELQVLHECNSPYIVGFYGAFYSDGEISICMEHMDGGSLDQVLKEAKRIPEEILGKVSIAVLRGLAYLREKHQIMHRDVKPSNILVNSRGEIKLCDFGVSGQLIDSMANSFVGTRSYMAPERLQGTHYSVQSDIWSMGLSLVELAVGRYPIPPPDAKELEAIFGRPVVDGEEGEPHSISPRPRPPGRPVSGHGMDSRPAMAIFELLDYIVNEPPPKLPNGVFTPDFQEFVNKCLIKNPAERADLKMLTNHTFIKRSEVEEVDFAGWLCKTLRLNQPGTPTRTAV

[14] = target: T3, Small ubiquitin-related modifier 1 (Homo sapiens, UniProt P63165); assay: SUMO1 protein-protein binding blockers, potency – biochemical, FRET, dose response (AID 624383); details: read-out: IC50_Mean
T3 sequence (P63165 whole entry): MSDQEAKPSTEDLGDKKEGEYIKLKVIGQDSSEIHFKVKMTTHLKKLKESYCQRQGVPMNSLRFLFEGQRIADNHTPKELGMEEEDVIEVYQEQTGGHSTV

[15] = target: T4, Multidrug resistance protein CDR2 (Candida albicans (strain SC5314 / ATCC MYA-2876) (Yeast), UniProt P78595); assay: inhibition of Nile Red efflux via Candida CDR2 – S. cerevisiae AD1-8u, singleplex, Cherry Pick1 hits, dose response (AID 588604)
T4 sequence (P78595 whole entry): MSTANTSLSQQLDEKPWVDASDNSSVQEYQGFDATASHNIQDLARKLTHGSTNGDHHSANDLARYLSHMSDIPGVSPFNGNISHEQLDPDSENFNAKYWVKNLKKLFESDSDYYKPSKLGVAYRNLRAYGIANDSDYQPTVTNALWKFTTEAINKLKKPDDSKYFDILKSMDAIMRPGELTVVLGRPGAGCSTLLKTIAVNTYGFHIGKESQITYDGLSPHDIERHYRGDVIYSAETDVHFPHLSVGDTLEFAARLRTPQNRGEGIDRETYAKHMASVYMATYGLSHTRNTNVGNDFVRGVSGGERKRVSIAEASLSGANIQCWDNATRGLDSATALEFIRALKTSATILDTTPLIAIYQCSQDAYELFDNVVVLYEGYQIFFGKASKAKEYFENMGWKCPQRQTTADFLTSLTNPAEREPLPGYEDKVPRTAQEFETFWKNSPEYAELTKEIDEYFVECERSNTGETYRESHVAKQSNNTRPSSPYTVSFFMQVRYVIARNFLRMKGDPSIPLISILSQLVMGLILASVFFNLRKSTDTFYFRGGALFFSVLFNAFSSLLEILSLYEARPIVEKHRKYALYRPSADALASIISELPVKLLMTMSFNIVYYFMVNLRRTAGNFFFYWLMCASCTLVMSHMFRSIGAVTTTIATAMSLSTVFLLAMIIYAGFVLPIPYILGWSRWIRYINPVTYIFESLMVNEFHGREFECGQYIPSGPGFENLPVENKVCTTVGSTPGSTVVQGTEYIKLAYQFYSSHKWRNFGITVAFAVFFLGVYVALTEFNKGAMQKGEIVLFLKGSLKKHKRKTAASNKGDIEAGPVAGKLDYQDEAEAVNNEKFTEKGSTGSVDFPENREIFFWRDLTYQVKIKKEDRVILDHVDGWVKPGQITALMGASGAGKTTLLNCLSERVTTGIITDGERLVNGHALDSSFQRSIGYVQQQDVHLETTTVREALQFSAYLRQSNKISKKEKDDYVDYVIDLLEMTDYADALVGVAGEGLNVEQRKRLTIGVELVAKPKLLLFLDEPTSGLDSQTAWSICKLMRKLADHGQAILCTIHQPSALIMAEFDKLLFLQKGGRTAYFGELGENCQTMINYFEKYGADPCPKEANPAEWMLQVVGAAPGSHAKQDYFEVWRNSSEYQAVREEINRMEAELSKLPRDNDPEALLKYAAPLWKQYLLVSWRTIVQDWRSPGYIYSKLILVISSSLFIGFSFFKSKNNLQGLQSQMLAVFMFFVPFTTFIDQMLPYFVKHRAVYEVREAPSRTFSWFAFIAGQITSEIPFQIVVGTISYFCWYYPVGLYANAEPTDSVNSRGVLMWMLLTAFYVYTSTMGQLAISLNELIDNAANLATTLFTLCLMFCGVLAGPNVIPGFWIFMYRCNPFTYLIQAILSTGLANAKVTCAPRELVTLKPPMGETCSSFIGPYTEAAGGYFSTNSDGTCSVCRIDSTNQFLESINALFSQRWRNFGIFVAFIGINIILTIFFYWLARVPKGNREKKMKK

[16] = Counterscreen for IDE inhibitors: Luminescence-based cell-based high throughput dose response assay to identify compounds that are cytotoxic to HEK cells. [Related pubchem assays: 434962 (Primary screen (IDE inhibitors in singlicate)), 449730 (Counterscreen (Cytotoxicity in triplicate)), 435028 (Confirmation (IDE inhibitors in triplicate)) …; details: HEK293
[17] = target: T3, Small ubiquitin-related modifier 1; assay: SUMO1 protein interaction blockers, potency – biochemical, fluorescence polarization, uHTS hits, dose response (AID 624382); details: read-out: IC50_Mean
[18] = target: T5, Insulin-degrading enzyme (Homo sapiens, UniProt P14735); assay: Dose Response: Fluorescence polarization-based cell-based high throughput dose response assay for inhibitors of insulin-degrading enzyme (IDE). [Related pubchem assays: 434962 (Primary screen (IDE inhibitors in singlicate)), 449730 (Counterscreen (Cytotoxicity in triplicate)), 435028 (Confirmation (IDE inhibitors in triplicate)), 434984 (Summary …
T5 sequence (P14735 whole entry): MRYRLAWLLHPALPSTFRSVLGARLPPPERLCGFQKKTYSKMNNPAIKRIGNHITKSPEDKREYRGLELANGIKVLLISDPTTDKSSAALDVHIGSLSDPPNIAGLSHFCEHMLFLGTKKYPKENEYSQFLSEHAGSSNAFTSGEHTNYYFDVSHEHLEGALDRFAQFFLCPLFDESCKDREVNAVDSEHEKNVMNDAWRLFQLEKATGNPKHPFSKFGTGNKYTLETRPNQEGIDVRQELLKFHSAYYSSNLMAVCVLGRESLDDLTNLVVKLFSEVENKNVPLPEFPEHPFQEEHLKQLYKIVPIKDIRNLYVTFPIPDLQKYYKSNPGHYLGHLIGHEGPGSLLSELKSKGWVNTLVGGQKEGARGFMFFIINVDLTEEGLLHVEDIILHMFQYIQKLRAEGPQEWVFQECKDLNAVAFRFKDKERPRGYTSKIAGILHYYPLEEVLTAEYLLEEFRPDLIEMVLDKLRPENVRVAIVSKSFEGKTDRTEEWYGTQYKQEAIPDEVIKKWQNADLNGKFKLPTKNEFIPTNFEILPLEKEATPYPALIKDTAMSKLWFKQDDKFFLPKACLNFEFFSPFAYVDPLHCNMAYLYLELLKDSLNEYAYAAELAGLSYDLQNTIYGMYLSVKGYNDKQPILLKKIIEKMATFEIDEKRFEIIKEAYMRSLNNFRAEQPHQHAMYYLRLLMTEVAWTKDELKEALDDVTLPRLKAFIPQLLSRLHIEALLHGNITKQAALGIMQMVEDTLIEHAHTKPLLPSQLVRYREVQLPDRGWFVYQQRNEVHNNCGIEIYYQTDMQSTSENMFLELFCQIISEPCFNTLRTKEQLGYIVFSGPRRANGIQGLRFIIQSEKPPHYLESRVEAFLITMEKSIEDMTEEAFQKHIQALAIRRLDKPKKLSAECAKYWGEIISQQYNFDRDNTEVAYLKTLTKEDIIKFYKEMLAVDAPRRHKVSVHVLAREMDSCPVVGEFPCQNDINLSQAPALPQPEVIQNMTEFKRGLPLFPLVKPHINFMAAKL

Sequence of G protein-coupled receptor kinase 5 (P34947 whole entry): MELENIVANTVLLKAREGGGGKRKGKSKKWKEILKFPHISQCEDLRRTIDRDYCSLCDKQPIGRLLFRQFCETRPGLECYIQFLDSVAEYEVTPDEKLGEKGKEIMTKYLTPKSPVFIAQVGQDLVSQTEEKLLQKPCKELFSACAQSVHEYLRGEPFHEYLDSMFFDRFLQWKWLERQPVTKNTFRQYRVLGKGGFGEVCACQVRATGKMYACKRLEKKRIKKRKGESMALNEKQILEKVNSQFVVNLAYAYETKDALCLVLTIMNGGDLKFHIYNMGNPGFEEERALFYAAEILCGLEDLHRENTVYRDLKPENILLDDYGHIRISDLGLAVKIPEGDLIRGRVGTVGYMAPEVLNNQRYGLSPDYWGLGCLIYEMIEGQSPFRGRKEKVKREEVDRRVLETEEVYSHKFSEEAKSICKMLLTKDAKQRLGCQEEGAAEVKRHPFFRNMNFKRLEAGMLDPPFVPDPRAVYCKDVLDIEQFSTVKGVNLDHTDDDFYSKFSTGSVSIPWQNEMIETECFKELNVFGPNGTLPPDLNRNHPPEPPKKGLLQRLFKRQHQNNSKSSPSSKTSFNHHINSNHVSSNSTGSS
Sequence of LIM domain kinase 1 (P53667 whole entry, the tested form may be a part): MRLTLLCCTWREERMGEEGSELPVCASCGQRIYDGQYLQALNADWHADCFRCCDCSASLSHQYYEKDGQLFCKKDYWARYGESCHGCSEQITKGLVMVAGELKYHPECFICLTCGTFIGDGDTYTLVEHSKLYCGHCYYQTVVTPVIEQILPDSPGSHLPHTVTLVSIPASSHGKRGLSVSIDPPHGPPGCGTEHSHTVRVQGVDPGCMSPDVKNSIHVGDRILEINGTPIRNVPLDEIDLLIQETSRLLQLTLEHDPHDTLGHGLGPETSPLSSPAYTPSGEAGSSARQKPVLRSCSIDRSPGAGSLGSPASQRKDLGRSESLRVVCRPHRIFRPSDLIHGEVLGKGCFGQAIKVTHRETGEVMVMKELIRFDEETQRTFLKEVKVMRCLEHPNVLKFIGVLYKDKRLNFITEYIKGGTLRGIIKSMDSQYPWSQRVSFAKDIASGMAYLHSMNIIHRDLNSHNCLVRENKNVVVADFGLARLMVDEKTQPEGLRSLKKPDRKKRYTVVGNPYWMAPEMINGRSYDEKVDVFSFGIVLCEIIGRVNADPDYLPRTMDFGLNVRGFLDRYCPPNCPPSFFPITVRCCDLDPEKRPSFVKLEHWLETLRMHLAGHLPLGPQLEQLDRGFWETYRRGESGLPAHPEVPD

For `Nc1nnc2cccc(Cl)n12`, the Ki [1] was 63.1 µM (active), the Ki [2] was 50.1 µM (active) and the Ki [3] was 63.1 µM (active). The Ki [4] was 50.1 µM (active), the Ki [5] was 100 µM (active) and the Ki [6] was 63.1 µM (active). For the same molecule, the Ki [7] was 100 µM (active), the Ki [8] was 79.4 µM (active) and the Ki [9] was 63.1 µM (active).
With `Nc1cc2c(Oc3ccc(Cl)cc3)cncc2s1` the Ki [10] was 1 µM (active), the Ki [11] was 2.51 µM (active) and the Ki [12] was 2.51 µM (active). The Ki [13] was 1.26 µM (active).
In the case of `O=C1Nc2ccccc2/C1=C/c1c[nH]c(-c2ccccc2)n1`, the IC50 [14] is reported as 4.96 µM (active), the EC50 [15] is reported as 3.89 µM (active) and the IC50 [16] is reported as 18.1 µM (not active). For the same molecule, the IC50 [17] was > 66.6 µM (inactive) and the IC50 [18] was > 55.9 µM (not active).
